Experimental findings from PubChem BioAssay (NCI) are described below.

Assay in all cases: DTP human tumour cell line panel, 48 h
The subject of assay [1] is SK-MEL-5 melanoma.
Assay [2] relates to A498 renal.
For assay [3], the system named is HS 578T breast.
Assay [4] relates to ACHN renal.
In assay [5] the test system is UACC-62 melanoma.
Assay [6] has as its system OVCAR-3 ovarian.
In assay [7] the test system is HT29 colon.
In assay [8] the test system is UACC-257 melanoma.
Assay [9] concerns RPMI-8226 leukemia.
In assay [10] the test system is SW-620 colon.

Values joined by “and” are separate entries in the source; they are usually repeats but may differ in a detail not shown here. Equal values may be shown once.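 Dose response: 5 concentrations. Exposure: 48 h. Format: 96-well plates. Endpoint: linear interpolation; highest concentration if not reached. Here, GI50 denotes the concentration required for 50% inhibition of growth. The concentration for full growth arrest is given as TGI.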

A word on the GI50: it is the concentration that inhibits growth by half. For orientation: TGI means the concentration giving total growth inhibition. For the compound `CCNC(=O)Oc1ccc(/C(=C(\C)c2ccc(Cl)cc2)c2ccc(OCCN(CC)CC)cc2)cc1`, the GI50 in assay [1] was 1.75 µM; in assay [2] it was 14.3 µM; in assay [3], 3.72 µM; in assay [4], 3.74 µM; in [5], 2.07 µM; in [6], 4.56 µM. Also, the GI50 in assay [7] is 2.52 µM; in [8], 2.11 µM; in assay [9], 2.4 µM; in assay [10] it was 2.02 µM. The TGI worked out at 3.15 µM in assay [1]; 29.6 µM in [2]; 16.5 µM in assay [3]; 14.6 µM in assay [4]; 4 µM in assay [5]; 16.7 µM in [6]. Besides, the TGI was determined as 6.44 µM in [7], 4.36 µM in assay [8], 6 µM in assay [9] and 4.23 µM in assay [10].

For the compound `O=C(Nc1ccc(Oc2ccc(NC(=O)Nc3ccccc3Cl)cc2)cc1)Nc1ccccc1Cl`, the concentration for total growth inhibition (TGI) in assay [1] is > 100 µM; in assay [2], 64.3 µM; in [3], > 100 µM; in [4], > 100 µM; in assay [5], > 62 µM; in [6], > 55 µM. The total growth inhibition concentration (TGI) in assay [7] was > 100 µM; in assay [8], > 28.2 µM; in [9], 15.7 µM; in [10], > 100 µM. Moreover, the GI50 in assay [2] is 22.2 µM; in assay [3], 17.8 µM; in [4] it was > 22.2 µM; in assay [5] it was 7.42 µM; in assay [6], 11.3 µM; in assay [7], > 21.4 µM. The GI50 in assay [9] is 1.19 µM; in assay [10], 10.6 µM.

Consider `COc1cc(-c2cc(-c3cccs3)c(C#N)c(N3CCOCC3)n2)cc(OC)c1OC`, for which the GI50 was 5.71 µM in assay [1]; 2.43 µM in [2]; 7.27 µM in [3]; 6.45 µM in [4]; 7.57 µM in assay [5]; 14.9 µM in [6]. Besides, the GI50 was 3.16 µM in [7], 3.22 µM in [8], 4.07 µM in [9] and 1.95 µM in [10]. The concentration for total growth inhibition (TGI) in assay [1] is > 100 µM; in assay [2] it was > 43.1 µM; in assay [3], > 100 µM; in assay [4] it was > 100 µM; in assay [5] it was > 100 µM; in [6], > 88.9 µM. The concentration for total growth inhibition (TGI) in [7] is > 100 µM; in [8] it was 9.9 µM; in assay [9], > 85.7 µM; in [10], 4.62 µM.

Turning to `C=C1C[C@@H](O)[C@@H](Br)C(C)(C)[C@]12CCC(C)(Br)C(Cl)C2` (stereo partly specified), the GI50 in assay [1] is 16.7 µM; in assay [2] it was 18 µM; in [3], 29.9 µM; in assay [4], 18.5 µM; in assay [5], 15.6 µM; in assay [6] it was 17.4 µM. In addition, the GI50 in [7] is 1.95 µM; in assay [8] it was 18.6 µM; in [9], 12.6 µM; in [10], 15.2 µM. For the same compound, the TGI in assay [1] was > 50 µM and 30.3 µM; in assay [2], > 50 µM and 31.9 µM; in [3], > 50 µM and 96.4 µM; in [4], > 50 µM and 34.1 µM; in assay [5], > 50 µM and 29.3 µM; in [6] it was > 50 µM and 33.7 µM. Moreover, the TGI in assay [7] is 50 µM and 16.4 µM; in assay [8] it was > 50 µM and 34.2 µM; in [9], 50 µM and 33.3 µM; in assay [10], > 50 µM and 33 µM.

On to `COc1ccc2nc3cc(Cl)ccc3c(NCCNCC(O)CO)c2c1` (stereo unspecified), for which the GI50 in assay [1] was 3.3 µM; in [2] it was 0.245 µM; in [3], 3.75 µM; in assay [4], 2.27 µM; in [5], 1.55 µM; in assay [6], 1.81 µM. Further, the GI50 was 0.726 µM in assay [7], 3.94 µM in assay [8], 2.3 µM in assay [9] and 0.61 µM in assay [10]. In addition, the concentration for total growth inhibition (TGI) in assay [1] stood at 11.1 µM; in assay [2], 2.64 µM; in assay [3], 21.1 µM; in assay [4], 13.3 µM; in assay [5] it was 4.01 µM; in assay [6], 8.55 µM. In addition, the total growth inhibition concentration (TGI) is 6.91 µM in [7], 12.9 µM in assay [8], 6.38 µM in assay [9] and 11.3 µM in assay [10].

In the case of `Nc1nc(=S)c2ncn(C3OC(CO)C(O)C3O)c2[nH]1` (stereo unspecified), the GI50 is 2.41 µM in assay [1]; 5.11 µM in [2]; 2.27 µM in assay [3]; 0.944 µM in assay [4]; 0.446 µM in [5]; 0.851 µM in assay [6]. Besides, the GI50 was 0.981 µM in assay [7], 31.8 µM in assay [8], 0.322 µM in assay [9] and 1.7 µM in [10]. The TGI is 10.8 µM in assay [1]; > 87.6 µM in [2]; > 86.1 µM in [3]; 42.6 µM in assay [4]; 5.67 µM in assay [5]; > 100 µM in [7]. For the same compound, the values for the total growth inhibition concentration (TGI) in assay [8], in [9] and in assay [10] were > 100 µM, 2.29 µM and > 100 µM, respectively.

As to `COC(=O)CC1C2(C)C3=C(C)C(c4ccoc4)CC3OC2C2OC(=O)C3(C)C=CC(=O)C1(C)C23` (stereo unspecified), the TGI is 3.03 µM in assay [1]; 4.99 µM in assay [2]; > 96.3 µM in [3]; 2.52 µM in assay [4]; 3.79 µM in [5]; 7.56 µM in [6]. Moreover, the concentration for total growth inhibition (TGI) worked out at 2.49 µM in assay [7], 5.02 µM in [8], 1.16 µM in [9] and 4.39 µM in [10].

`CC(=O)NC(CS)C(=O)O` (stereo unspecified): the GI50 in assay [1], in assay [3], in assay [4], in assay [5], in assay [6] and in assay [7] was > 100 µM each time. For the same compound, the GI50 in assay [8], in assay [9] and in assay [10] was > 100 µM each time. Also, the total growth inhibition concentration (TGI) in assay [1] was > 100 µM and 66800 µM; in assay [2], 18500 µM; in assay [3], > 100 µM and 87200 µM; in [4], > 100 µM; in assay [5], > 100 µM; in [6], > 100 µM and 58500 µM. The TGI in [7] is > 100 µM and 86700 µM; in assay [8] it was > 100 µM; in assay [9], > 100 µM and 3720 µM; in assay [10], > 100 µM.
